Experimental data published in article PMC5061557 (Structure (London, England : 1993), 2016).

B1: E. coli L199Q HslU mutant with an N-terminal H6 tag (enzyme, UniProt P0A6H5 1-443, looked up)
chain: MSEMTPREIVSELDKHIIGQDNAKRSVAIALRNRWRRMQLNEELRHEVTPKNILMIGPTGVGKTEIARRLAKLANAPFIKVEATKFTEVGYVGKEVDSIIRDLTDAAVKMVRVQAIEKNRYRAEELAEERILDVLIPPAKNNWGQTEQQQEPSAARQAFRKKLREGQLDDKEIEIDLAAAPMGVEIMAPPGMEEMTSQQQSMFQNLGGQKQKARKLKIKDAMKLLIEEEAAKLVNPEELKQDAIDAVEQHGIVFIDEIDKICKRGESSGPDVSREGVQRDLLPLVEGCTVSTKHGMVKTDHILFIASGAFQIAKPSDLIPELQGRLPIRVELQALTTSDFERILTEPNASITVQYKALMATEGVNIEFTDSGIKRIAEAAWQVNESTENIGARRLHTVLERLMEEISYDASDLSGQNITIDADYVSKHLDALVADEDLSRFIL

How the values were obtained:
WTHslU = WTHslU (Escherichia coli, UniProt P0A6H5); experiment: NADH-coupled ATPase assay; assay type: biochemical; settings: 5 mM ATP, pH 7.5, 20 mM MgCl2, 37 °C, without HslV
WTHslU, sequence (P0A6H5 whole entry): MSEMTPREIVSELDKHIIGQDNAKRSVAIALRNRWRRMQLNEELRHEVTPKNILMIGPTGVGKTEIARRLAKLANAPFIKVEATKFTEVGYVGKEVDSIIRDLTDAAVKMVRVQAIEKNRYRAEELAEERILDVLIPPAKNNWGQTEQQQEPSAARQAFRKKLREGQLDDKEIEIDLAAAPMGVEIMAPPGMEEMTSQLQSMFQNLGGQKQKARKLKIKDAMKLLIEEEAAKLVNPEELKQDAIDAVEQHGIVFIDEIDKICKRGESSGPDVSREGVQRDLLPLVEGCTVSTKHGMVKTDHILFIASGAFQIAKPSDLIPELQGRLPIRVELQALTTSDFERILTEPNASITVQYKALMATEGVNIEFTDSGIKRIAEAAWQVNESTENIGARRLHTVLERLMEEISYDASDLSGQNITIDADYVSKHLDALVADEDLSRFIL

crystal structure = target: the molecule itself; experiment: crystal structure

Molecule	NADH-coupled ATPase assay (WTHslU)	stoichiometry N (crystal structure)
Nc1ncnc2c1ncn2[C@@H]1O[C@H](COP(=O)(O)OP(=O)(O)OP(=O)(O)O)[C@@H](O)[C@H]1O [ATP]	assayed rates of ATP hydrolysis for this enzyme and wild type	–
B1	–	6
